Measured values published in US20240277637A1, “CAPSAICIN DERIVATIVES IN THE TREATMENT OF IDIOPATHIC PULMONARY FIBROSIS” (aXichem AB, priority 2021, published 2024).

Tests used:
Format in all cases: cell-based
Conditions in all cases: 10 ng/ml PDGF-AB, 14 days
[1] = test system: human bronchial epithelial cells; test: Clonogenic cell survival assay, bronchial epithelial cells with PDGF-AB (Example 2)
Procedure: Primary isolated human bronchial epithelial cells (NHBE) (Normal, Human (ATCC® BEAS-2B™)) were cultured up to passage 6. […].
A clonogenic cell survival assay determines the ability of a cell to proliferate indefinitely. The effects of phenylcapsaicin on clonogenic survival of bronchial epithelial cells was investigated by plating the cells with increasing numbers (10^2 to 5×10^4) in 25 cm^2 flasks. SU9518, a known inhibitor for PDGF which has shown the ability to reduce radiation-induced fibroblast and endothelial cell activation, was used as the positive control. The cells were incubated with 0-10 μM of phenylcapsaicin and SU9518 separately in the presence of 10 ng/ml PDGF-AB. The flasks were returned to the incubator for 14 days, after which they were stained with crystal violet. The colonies were counted, and the surviving percentage was determined for clonogenic survival after correcting for plating efficiency.

[2] = test system: human corneal epithelial cells; test: Clonogenic cell survival assay, corneal epithelial cells with PDGF-AB (Example 1)
Procedure: Primary isolated human corneal epithelial cells; Normal, Human cells (ATCC® PCS-700-010™) were maintained in culture at 37° C. with 5% CO2 and 95% humidity in serum reduced (5% fetal calf serum) modified promocell media (MPM) supplemented with 4 ng/ml fibronectin (FN), 2 ng/ml human recombinant vascular endothelial growth factor (VEGF) and 4 ng/ml basic fibroblast growth factor (bFGF).
A clonogenic cell survival assay determines the ability of a cell to proliferate indefinitely. The effects of phenylcapsaicin (2) on clonogenic survival of corneal epithelial cells was investigated by plating the cells with increasing numbers (102 to 5×104) in 25 cm^2 flasks. SU9518, a known inhibitor PDGF that has shown the ability to reduce radiation-induced fibroblast and endothelial cell activation, was used as the positive control. The cells were incubated with 0-10 μM of phenylcapsaicin and SU9518 separately in the presence of 10 ng/ml PDGF-AB. The flasks were returned to the incubator for 14 days, after which they were stained with crystal violet. The colonies were counted, and the surviving

[3] = test system: human bronchial epithelial cells; test: Clonogenic cell survival assay, bronchial epithelial cells with PDGF-AB (Example 3)
Procedure: (§1) Primary isolated human bronchial epithelial cells (NHBE) were used in this assay sourced from the American Tissue Culture Collection (Normal, Human (ATCC® BEAS-2B™)) and were cultured up to passage 6. […].
A clonogenic cell survival assay determines the ability of a cell to proliferate indefinitely. Cells were plated with increasing numbers (102 to 5×10^4) in 25 cm^2 flasks. SU9518, SU9518, a known inhibitor PDGF that has shown the ability to reduce radiation-induced fibroblast and endothelial cell activation, and phenylcapsaicin were used as positive controls. The cells were incubated with 0-10 μM (3% DMSO aqueous) of phenylcapsaicin, SU9518, and compounds 1 and 3-7 separately in the presence of 10 ng/ml PDGF-AB (Sigma Aldrich). The flasks were returned to the incubator for 14 days, after which they were stained with crystal violet (Sigma Aldrich). The colonies were counted and the surviving percentage was determined for clonogenic survival after correcting for plating efficiency.

[4] = test system: human bronchial epithelial cells; test: Clonogenic cell survival assay, bronchial epithelial cells with PDGF-AB (Example 4)
Procedure: as §1
The effects of Phenylcapsaicin (2) on clonogenic survival of bronchial epithelial cells, by plating the cells with increasing numbers (102 to 5×104) in 25 cm^2 flasks were investigated. SU9518* and Phenylcapsaicin were used as positive controls. The cells were incubated with 0-10 μM (3% DMSO aqueous) of Phenylcapsaicin, SU9518, and compounds 8-12 separately in the presence of 10 ng/ml PDGF-AB (Sigma Aldrich). The flasks were returned to the incubator for 14 days, after which they were stained with crystal violet (Sigma Aldrich). The colonies were counted and the surviving percentage was determined for clonogenic survival after correcting for plating efficiency. The synthetic analogs were all calculated at 100% purity for molar concentrations.

Cc1[nH]c(/C=C2\C(=O)Nc3ccc(Br)cc32)c(C)c1CCC(=O)O [SU9518, reference compound]
effect on clonogenic survival ([1]; 0-10 μM): dose dependent reduction in cell survival
surviving fraction of epithelial cells ([1]; 5 μM): 33%
effect on clonogenic survival ([2]; 0-10 μM): dose dependent reduction in cell survival
surviving fraction of epithelial cells ([2]; 5 μM): 30%
Clonogenic Survival Assay (percent) ([3]; 0.10 μM): 80%
Clonogenic Survival Assay (percent) ([3]; 0.50 μM): 65%
Clonogenic Survival Assay (percent) ([3]; 1.00 μM): 59%
Clonogenic Survival Assay (percent) ([3]; 2.00 μM): 41%
Clonogenic Survival Assay (percent) ([3]; 5.00 μM): 33%
Clonogenic Survival Assay (percent) ([3]; 10.00 μM): 22%
Clonogenic Survival Assay (percent) ([4]; 0.10 uM): 80%
Clonogenic Survival Assay (percent) ([4]; 0.50 uM): 65%
Clonogenic Survival Assay (percent) ([4]; 1.00 uM): 59%
Clonogenic Survival Assay (percent) ([4]; 2.00 uM): 41%
Clonogenic Survival Assay (percent) ([4]; 5.00 uM): 33%
Clonogenic Survival Assay (percent) ([4]; 10.00 uM): 22%
